The subject of one assay is strain hCg-6. As to the kind of experiment: Antibiotic sensitivity of the strain hCg-6. Details: key to Sensitive to: +: Positive; −: negative; f: slight reaction. The assay is classed as cell-based, Pseudoalteromonas hCg-6.
A further assay relates to A. caviae CIP 7616. Put plainly: MIC in liquid medium. In kind it is cell-based. Particulars: 24 h. As to the method:
(§1) The minimum inhibitory concentration (MIC) of the compounds nos. 1, 2, 3, 5, 7 and 8 was evaluated in a liquid medium following the procedure of Wiegand, Hilpert, and Hancock 2008. The spectrum of the target bacteria was extended to certain human pathogens such as the bacteria Salmonella enterica, a clinical strain of Escherichia coli having a beta-3-lactamase activity with an extended spectrum and Pseudomonas aeruginosa. After 24 h of incubation at an optimum temperature, the MICs are evaluated visually.

A further assay deals with Y. ruckeri ATCC 29473. As to the kind of experiment: MIC in liquid medium. The assay is classed as cell-based. The settings on record: 24 h. The protocol:
as §1

For the next assay, the system named is S. enterica CIP 8297. Put plainly: MIC in liquid medium. The assay is classed as cell-based. Particulars: 24 h. The protocol: as §1
Another assay relates to V. splendidus LGP 32. As to the kind of experiment: MIC in liquid medium. The assay is classed as cell-based. The settings on record: 24 h. As to the method:
as §1

Assay [1] has as its system E. coli β résistante P7 (clinical strain). As to the kind of experiment: MIC in liquid medium. The assay is classed as cell-based. The settings on record: 24 h. The protocol:
as §1

Another assay deals with E. coli ML35. As to the kind of experiment: MIC in liquid medium. In kind it is cell-based. Particulars: 24 h. The protocol: as §1
Another assay deals with E. coli SBS363. Put plainly: MIC in liquid medium. In kind it is cell-based. The settings on record: 24 h. The protocol: as §1
The test system of assay [2] is Pseudomonas aeruginosa ATCC 27853. As to the kind of experiment: MIC in liquid medium. In kind it is cell-based. Particulars: 24 h. As to the method:
as §1

For assay [3], the system named is collection of strains of Vibrio splendidus isolated from oysters. Put plainly: MIC in liquid medium on a collection of Vibrio splendidus strains isolated from oysters. Particulars: collection of V. splendidus strains. In kind it is cell-based. The protocol:
The cyclolipopeptide no. 2 was tested on a collection of strains of Vibrio splendidus isolated from oysters. It has minimum inhibitory concentrations from 1.56 to 50 μM. The MICs were defined in a liquid medium by using the procedure of Wiegand, Hilpert, and Hancock 2008.

The test system of a further assay is V. harveyi ORM4. As to the kind of experiment: MIC in liquid medium. The assay is classed as cell-based. Particulars: 24 h. As to the method:
as §1

The next assay concerns A. hydrophila CIP 7614. Put plainly: MIC in liquid medium. The settings on record: 24 h. The assay is classed as cell-based. The protocol:
as §1

Converted amounts (≈) assume the structure as drawn. Like-named read-outs stand apart in the source and are kept apart here.

On to `CC1(C)S[C@@H]2[C@H](NC(=O)[C@H](N)c3ccc(O)cc3)C(=O)N2[C@H]1C(=O)O` [amoxicillin], for which the “resistance/sensitivity of the strain hCg-6” value (“resistance/sensitivity” for short) in the assay on strain hCg-6 is on record as “sensitive”.

For `CO/N=C(\C(=O)N[C@@H]1C(=O)N2C(C(=O)[O-])=C(C[n+]3cccc4c3CCCC4)CS[C@H]12)c1csc(N)n1` [cefquinom], the “resistance/sensitivity” value with strain hCg-6 is “sensitive”.

As to `CC1=C(C(=O)O)N2C(=O)[C@@H](NC(=O)[C@H](N)c3ccccc3)[C@H]2SC1` [cephalexin], the “resistance/sensitivity” value with strain hCg-6 is “resistant”.

Regarding `CC=C1NC(=O)C(NC(=O)CC(O)CCCCCCC)C(O)CNC(=O)C(C(O)CN)NC(=O)C(C(O)CN)NC(=O)C(CCCNC(=N)N)NC(=O)C(CC(C)CC)NC(=O)C(CCN)NC1=O` (stereo not shown) [cyclolipopeptide 2], the MIC was determined as 17.6 µM (≈ 17.3 µg/mL) with A. caviae CIP 7616; 1.1 µM (≈ 1.08 µg/mL) in the assay with Y. ruckeri ATCC 29473; 1.4 µM (≈ 1.38 µg/mL) in the assay on S. enterica CIP 8297; 4.4 µM (≈ 4.33 µg/mL) against V. splendidus LGP 32; 8.8 µM (≈ 8.67 µg/mL) in [1]; 35 µM (≈ 34.5 µg/mL) in the assay with E. coli ML35. The MIC is 0.1 µM (≈ 0.0985 µg/mL) in the assay on E. coli SBS363 and 35.2 µM (≈ 34.7 µg/mL) in [2]. In assay [3], the minimum inhibitory concentrations fell in the range of 1.56 to 50 µM.

In the case of `CC=C1NC(=O)C(NC(=O)CCCCCCC)C(O)CNC(=O)C(C(O)CN)NC(=O)C(C(O)CN)NC(=O)C(CCCNC(=N)N)NC(=O)C(CC(C)CC)NC(=O)C(CCN)NC1=O` (stereo not shown) [cyclolipopeptide 3], the minimum inhibitory concentration (MIC) in the assay on Y. ruckeri ATCC 29473 was 50 µM (≈ 47.1 µg/mL); with V. harveyi ORM4, 50 µM (≈ 47.1 µg/mL); against S. enterica CIP 8297, 12.5 µM (≈ 11.8 µg/mL); in the assay on V. splendidus LGP 32, 50 µM (≈ 47.1 µg/mL); against E. coli ML35 it was 100 µM (≈ 94.1 µg/mL); in the assay on E. coli SBS363, 50 µM (≈ 47.1 µg/mL).

On to `CC=C1NC(=O)C(NC(=O)CCCCCCCC)C(O)CNC(=O)C(C(O)CN)NC(=O)C(C(O)CN)NC(=O)C(CCCNC(=N)N)NC(=O)C(CC(C)CC)NC(=O)C(CCN)NC1=O` (stereo not shown) [cyclolipopeptide 5], for which the minimal inhibitory concentration (MIC) in the assay with Y. ruckeri ATCC 29473 amounted to 6.3 µM (≈ 6.02 µg/mL); against V. harveyi ORM4, 6.3 µM (≈ 6.02 µg/mL); against A. hydrophila CIP 7614, 25 µM (≈ 23.9 µg/mL); against S. enterica CIP 8297 it was 6.3 µM (≈ 6.02 µg/mL); against V. splendidus LGP 32, 6.3 µM (≈ 6.02 µg/mL); against E. coli ML35, 50 µM (≈ 47.8 µg/mL). Moreover, the MIC in the assay on E. coli SBS363 amounted to 25 µM (≈ 23.9 µg/mL).

Turning to `CCN1CCN(c2cc3c(cc2F)c(=O)c(C(=O)O)cn3C2CC2)CC1` [enrofloxacin], the “resistance/sensitivity” value with strain hCg-6 is given as “sensitive”.

`CCn1cc(C(=O)O)c(=O)c2cc3c(cc21)OCO3` [oxolinic acid]: in the assay on strain hCg-6, the “resistance/sensitivity” value was “sensitive”.

In the case of Polymyxin B [reference compound], the minimal inhibitory concentration (MIC) worked out at 3.1 µM against A. caviae CIP 7616; 0.4 µM with Y. ruckeri ATCC 29473; 25 µM against V. harveyi ORM4; 0.8 µM with A. hydrophila CIP 7614; 0.8 µM against S. enterica CIP 8297; 1.6 µM against V. splendidus LGP 32. Further, the MIC came out at 1.6 µM in assay [1], 3.1 µM in the assay on E. coli ML35, 0.2 µM in the assay on E. coli SBS363 and 1.6 µM in [2].

gentamycin: the “resistance/sensitivity” value in the assay on strain hCg-6 is “sensitive”.

Turning to polymyxin, the “resistance/sensitivity” value in the assay with strain hCg-6 (50 μg) was “resistant”. The “Sensitive to” value in the assay with strain hCg-6 (300 ED) is given as “−”.

As a reminder, the MIC is the least concentration at which growth counts as inhibited.

The values are drawn from patent US9956262B2, “Use of a bacterium isolated from the genus Pseudoalteromonas, cyclolipopeptides and uses thereof” (priority 2013, dated 2018).
